According to PubChem BioAssay AID1982 (Sanford-Burnham Center for Chemical Genomics, 2009):
Calls of active or inactive are those of the source. The rule behind the calls is not given here.

What was measured:
Experiment in all cases: kinase panel binding selectivity, selectivity assay, biochemical, KINOMEscan (AID 1982)
[1] = target: Epidermal growth factor receptor (Homo sapiens) (UniProt P00533); settings: KINOMEscan 353-kinase binding panel, qPCR, at 10 µM, hits give low values
TEC = settings: KINOMEscan 353-kinase binding panel, qPCR, at 10 µM, hits give low values
JAK1(Kin.Dom.2) = settings: KINOMEscan 353-kinase binding panel, qPCR, at 10 µM, hits give low values
[2] = target: Serine/threonine-protein kinase BRSK1 (Homo sapiens) (UniProt Q8TDC3); settings: KINOMEscan 353-kinase binding panel, qPCR, at 10 µM, hits give low values
[3] = target: Tyrosine-protein kinase Lck (Homo sapiens) (UniProt P06239); settings: KINOMEscan 353-kinase binding panel, qPCR, at 10 µM, hits give low values
[4] = target: Serine/threonine-protein kinase pim-3 (Homo sapiens) (UniProt Q86V86); settings: KINOMEscan 353-kinase binding panel, qPCR; PIM3; at 10 µM; hits give low values
LIMK2 = settings: KINOMEscan 353-kinase binding panel, qPCR, at 10 µM, hits give low values
[5] = target: Death-associated protein kinase 3 (Homo sapiens) (UniProt O43293); settings: KINOMEscan 353-kinase binding panel, qPCR; DAPK3; at 10 µM; hits give low values
CSK = settings: KINOMEscan 353-kinase binding panel, qPCR, at 10 µM, hits give low values
[6] = target: Cyclin-dependent kinase 9 (Homo sapiens) (UniProt P50750); settings: KINOMEscan 353-kinase binding panel, qPCR; CDK9; at 10 µM; hits give low values
BMPR2 = settings: KINOMEscan 353-kinase binding panel, qPCR, at 10 µM, hits give low values
[7] = target: Serine/threonine-protein kinase D3 (Homo sapiens) (UniProt O94806); settings: KINOMEscan 353-kinase binding panel, qPCR; PRKD3; at 10 µM; hits give low values
Serine/threonine-protein kinase D3 (Homo sapiens), sequence (O94806 whole entry, looked up): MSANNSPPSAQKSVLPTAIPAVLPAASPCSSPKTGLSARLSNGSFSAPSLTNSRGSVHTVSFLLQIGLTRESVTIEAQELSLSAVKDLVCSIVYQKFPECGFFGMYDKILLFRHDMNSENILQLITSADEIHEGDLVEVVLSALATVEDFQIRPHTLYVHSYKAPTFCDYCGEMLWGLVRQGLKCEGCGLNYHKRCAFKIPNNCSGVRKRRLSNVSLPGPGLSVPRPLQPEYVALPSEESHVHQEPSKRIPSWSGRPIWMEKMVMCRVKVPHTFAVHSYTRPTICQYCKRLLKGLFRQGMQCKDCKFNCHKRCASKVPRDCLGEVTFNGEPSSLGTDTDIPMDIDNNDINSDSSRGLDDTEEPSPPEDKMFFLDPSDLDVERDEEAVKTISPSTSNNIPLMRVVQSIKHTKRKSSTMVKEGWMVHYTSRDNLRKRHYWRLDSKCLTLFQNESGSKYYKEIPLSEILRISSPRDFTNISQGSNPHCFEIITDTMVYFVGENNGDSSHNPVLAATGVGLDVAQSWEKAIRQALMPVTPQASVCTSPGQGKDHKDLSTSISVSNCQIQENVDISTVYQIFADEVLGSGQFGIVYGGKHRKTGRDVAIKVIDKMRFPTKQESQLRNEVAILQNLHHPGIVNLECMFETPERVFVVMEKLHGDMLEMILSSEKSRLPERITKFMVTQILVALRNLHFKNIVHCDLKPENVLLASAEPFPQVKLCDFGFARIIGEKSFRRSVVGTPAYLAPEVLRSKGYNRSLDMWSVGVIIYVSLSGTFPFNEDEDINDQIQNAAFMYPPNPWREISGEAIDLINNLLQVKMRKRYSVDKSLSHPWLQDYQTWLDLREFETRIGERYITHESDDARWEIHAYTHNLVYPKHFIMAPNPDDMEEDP

[8] = target: Tyrosine-protein kinase FRK (Homo sapiens) (UniProt P42685); settings: KINOMEscan 353-kinase binding panel, qPCR, at 10 µM, hits give low values
[9] = target: Casein kinase I isoform gamma-3 (Homo sapiens) (UniProt Q9Y6M4); settings: KINOMEscan 353-kinase binding panel, qPCR; CSNK1G3; at 10 µM; hits give low values
[10] = target: Receptor-type tyrosine-protein kinase FLT3 (Homo sapiens) (UniProt P36888); settings: KINOMEscan 353-kinase binding panel, qPCR, at 10 µM, hits give low values
Receptor-type tyrosine-protein kinase FLT3 (Homo sapiens), sequence (P36888 whole entry, looked up): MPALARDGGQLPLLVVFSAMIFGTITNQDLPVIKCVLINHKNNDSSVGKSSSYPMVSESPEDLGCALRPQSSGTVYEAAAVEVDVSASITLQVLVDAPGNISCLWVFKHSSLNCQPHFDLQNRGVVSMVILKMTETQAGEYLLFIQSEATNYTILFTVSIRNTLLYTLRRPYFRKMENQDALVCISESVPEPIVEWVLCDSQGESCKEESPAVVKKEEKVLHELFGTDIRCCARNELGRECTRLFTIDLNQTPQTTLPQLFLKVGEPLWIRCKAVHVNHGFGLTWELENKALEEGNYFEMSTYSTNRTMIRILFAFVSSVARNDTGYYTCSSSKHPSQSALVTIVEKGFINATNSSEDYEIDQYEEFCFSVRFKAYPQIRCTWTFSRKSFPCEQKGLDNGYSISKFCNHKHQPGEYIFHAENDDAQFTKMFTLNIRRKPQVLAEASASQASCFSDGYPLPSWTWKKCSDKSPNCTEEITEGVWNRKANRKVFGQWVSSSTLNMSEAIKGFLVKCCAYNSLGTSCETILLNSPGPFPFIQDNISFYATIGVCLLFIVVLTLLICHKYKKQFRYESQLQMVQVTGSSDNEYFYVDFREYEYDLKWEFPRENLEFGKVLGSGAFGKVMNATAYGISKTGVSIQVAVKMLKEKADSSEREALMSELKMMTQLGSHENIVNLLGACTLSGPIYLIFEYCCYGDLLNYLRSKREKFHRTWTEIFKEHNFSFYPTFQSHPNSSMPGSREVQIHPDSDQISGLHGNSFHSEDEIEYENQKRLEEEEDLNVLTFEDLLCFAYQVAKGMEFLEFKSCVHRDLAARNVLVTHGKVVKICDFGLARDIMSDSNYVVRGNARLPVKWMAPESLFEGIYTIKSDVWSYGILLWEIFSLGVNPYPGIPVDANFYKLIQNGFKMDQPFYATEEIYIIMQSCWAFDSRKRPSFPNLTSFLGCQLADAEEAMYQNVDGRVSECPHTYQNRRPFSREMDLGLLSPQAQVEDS

JAK1(Kin.Dom.1) = settings: KINOMEscan 353-kinase binding panel, qPCR, at 10 µM, hits give low values
CSNK1E = settings: KINOMEscan 353-kinase binding panel, qPCR, at 10 µM, hits give low values
DAPK2 = settings: KINOMEscan 353-kinase binding panel, qPCR, at 10 µM, hits give low values
CSNK1A1L = settings: KINOMEscan 353-kinase binding panel, qPCR, at 10 µM, hits give low values
MLCK = settings: KINOMEscan 353-kinase binding panel, qPCR, at 10 µM, hits give low values
MLK3 = settings: KINOMEscan 353-kinase binding panel, qPCR, at 10 µM, hits give low values
MEK2 = settings: KINOMEscan 353-kinase binding panel, qPCR, at 10 µM, hits give low values
[11] = target: Dual specificity protein kinase CLK4 (Homo sapiens) (UniProt Q9HAZ1); settings: KINOMEscan 353-kinase binding panel, qPCR, at 10 µM, hits give low values
[12] = target: Dual specificity protein kinase CLK2 (Homo sapiens) (UniProt P49760); settings: KINOMEscan 353-kinase binding panel, qPCR, at 10 µM, hits give low values
Dual specificity protein kinase CLK2 (Homo sapiens), sequence (P49760 whole entry, looked up): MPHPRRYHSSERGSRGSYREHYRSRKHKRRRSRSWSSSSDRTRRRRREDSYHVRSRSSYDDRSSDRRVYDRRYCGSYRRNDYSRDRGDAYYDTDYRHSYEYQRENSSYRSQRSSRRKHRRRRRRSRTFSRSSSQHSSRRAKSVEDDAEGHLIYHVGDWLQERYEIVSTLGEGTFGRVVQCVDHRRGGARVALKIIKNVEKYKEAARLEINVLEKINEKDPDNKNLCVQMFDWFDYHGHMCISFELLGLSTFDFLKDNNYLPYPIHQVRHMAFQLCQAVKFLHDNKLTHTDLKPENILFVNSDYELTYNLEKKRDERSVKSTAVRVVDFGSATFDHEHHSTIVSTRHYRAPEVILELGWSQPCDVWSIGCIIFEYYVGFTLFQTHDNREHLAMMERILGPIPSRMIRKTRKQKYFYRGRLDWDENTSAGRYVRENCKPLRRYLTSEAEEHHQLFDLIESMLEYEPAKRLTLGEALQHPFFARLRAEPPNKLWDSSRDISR

[13] = target: cAMP-dependent protein kinase catalytic subunit alpha (Homo sapiens) (UniProt P17612); settings: KINOMEscan 353-kinase binding panel, qPCR; PKAC-alpha; at 10 µM; hits give low values
NDR2 = settings: KINOMEscan 353-kinase binding panel, qPCR, at 10 µM, hits give low values
[14] = target: Proto-oncogene tyrosine-protein kinase ROS (Homo sapiens) (UniProt P08922); settings: KINOMEscan 353-kinase binding panel, qPCR; ROS1; at 10 µM; hits give low values
[15] = target: Ribosomal protein S6 kinase alpha-4 (Homo sapiens) (UniProt O75676); settings: KINOMEscan 353-kinase binding panel, qPCR, at 10 µM, hits give low values
Ribosomal protein S6 kinase alpha-4 (Homo sapiens), sequence (O75676 whole entry, looked up): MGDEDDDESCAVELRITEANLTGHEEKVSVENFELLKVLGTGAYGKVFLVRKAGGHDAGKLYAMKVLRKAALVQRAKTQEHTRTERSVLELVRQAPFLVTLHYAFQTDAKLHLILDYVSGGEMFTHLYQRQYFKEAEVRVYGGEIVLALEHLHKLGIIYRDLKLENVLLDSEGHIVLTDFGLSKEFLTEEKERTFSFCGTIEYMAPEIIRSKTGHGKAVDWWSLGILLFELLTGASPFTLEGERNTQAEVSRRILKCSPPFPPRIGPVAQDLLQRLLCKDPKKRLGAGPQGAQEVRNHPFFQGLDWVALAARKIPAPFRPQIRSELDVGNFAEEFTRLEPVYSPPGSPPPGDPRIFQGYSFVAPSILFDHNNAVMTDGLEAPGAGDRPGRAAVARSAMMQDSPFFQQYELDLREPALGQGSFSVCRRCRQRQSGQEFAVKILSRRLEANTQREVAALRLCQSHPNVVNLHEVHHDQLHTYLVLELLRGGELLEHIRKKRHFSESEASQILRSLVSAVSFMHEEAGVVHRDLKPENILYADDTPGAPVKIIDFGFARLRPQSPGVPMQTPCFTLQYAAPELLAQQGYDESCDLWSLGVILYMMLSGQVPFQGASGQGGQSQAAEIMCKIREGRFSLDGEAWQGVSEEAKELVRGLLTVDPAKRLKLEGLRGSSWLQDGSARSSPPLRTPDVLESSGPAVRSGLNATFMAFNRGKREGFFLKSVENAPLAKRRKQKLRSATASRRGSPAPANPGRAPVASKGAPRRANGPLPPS

[16] = target: Serine/threonine-protein kinase PLK3 (Homo sapiens) (UniProt Q9H4B4); settings: KINOMEscan 353-kinase binding panel, qPCR, at 10 µM, hits give low values
Serine/threonine-protein kinase PLK3 (Homo sapiens), sequence (Q9H4B4 whole entry, looked up): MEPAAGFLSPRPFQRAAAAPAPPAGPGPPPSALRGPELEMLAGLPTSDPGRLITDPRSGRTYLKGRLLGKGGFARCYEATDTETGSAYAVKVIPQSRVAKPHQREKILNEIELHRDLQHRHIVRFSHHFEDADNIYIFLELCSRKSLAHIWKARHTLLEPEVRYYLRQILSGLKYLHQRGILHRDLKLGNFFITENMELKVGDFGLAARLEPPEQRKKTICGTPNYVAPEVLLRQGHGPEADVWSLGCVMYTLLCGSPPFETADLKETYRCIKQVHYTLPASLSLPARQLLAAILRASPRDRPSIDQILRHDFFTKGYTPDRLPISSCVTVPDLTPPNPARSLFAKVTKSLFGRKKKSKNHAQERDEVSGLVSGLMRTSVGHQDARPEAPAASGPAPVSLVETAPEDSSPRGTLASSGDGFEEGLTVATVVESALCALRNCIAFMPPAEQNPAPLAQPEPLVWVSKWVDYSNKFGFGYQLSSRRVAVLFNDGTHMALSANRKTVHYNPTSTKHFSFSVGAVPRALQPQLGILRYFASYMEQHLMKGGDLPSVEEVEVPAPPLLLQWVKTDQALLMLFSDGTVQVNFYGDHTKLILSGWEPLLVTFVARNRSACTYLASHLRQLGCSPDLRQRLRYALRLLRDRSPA

[17] = target: Protein-tyrosine kinase 6 (Homo sapiens) (UniProt Q13882); settings: KINOMEscan 353-kinase binding panel, qPCR; PTK6; at 10 µM; hits give low values
[18] = target: Calcium/calmodulin-dependent protein kinase type II subunit alpha (Homo sapiens) (UniProt Q9UQM7); settings: KINOMEscan 353-kinase binding panel, qPCR; CAMK2A; at 10 µM; hits give low values
LKB1 = settings: KINOMEscan 353-kinase binding panel, qPCR, at 10 µM, hits give low values

Measured: percent of control binding

Epidermal growth factor receptor (Homo sapiens), sequence (P00533 whole entry, looked up): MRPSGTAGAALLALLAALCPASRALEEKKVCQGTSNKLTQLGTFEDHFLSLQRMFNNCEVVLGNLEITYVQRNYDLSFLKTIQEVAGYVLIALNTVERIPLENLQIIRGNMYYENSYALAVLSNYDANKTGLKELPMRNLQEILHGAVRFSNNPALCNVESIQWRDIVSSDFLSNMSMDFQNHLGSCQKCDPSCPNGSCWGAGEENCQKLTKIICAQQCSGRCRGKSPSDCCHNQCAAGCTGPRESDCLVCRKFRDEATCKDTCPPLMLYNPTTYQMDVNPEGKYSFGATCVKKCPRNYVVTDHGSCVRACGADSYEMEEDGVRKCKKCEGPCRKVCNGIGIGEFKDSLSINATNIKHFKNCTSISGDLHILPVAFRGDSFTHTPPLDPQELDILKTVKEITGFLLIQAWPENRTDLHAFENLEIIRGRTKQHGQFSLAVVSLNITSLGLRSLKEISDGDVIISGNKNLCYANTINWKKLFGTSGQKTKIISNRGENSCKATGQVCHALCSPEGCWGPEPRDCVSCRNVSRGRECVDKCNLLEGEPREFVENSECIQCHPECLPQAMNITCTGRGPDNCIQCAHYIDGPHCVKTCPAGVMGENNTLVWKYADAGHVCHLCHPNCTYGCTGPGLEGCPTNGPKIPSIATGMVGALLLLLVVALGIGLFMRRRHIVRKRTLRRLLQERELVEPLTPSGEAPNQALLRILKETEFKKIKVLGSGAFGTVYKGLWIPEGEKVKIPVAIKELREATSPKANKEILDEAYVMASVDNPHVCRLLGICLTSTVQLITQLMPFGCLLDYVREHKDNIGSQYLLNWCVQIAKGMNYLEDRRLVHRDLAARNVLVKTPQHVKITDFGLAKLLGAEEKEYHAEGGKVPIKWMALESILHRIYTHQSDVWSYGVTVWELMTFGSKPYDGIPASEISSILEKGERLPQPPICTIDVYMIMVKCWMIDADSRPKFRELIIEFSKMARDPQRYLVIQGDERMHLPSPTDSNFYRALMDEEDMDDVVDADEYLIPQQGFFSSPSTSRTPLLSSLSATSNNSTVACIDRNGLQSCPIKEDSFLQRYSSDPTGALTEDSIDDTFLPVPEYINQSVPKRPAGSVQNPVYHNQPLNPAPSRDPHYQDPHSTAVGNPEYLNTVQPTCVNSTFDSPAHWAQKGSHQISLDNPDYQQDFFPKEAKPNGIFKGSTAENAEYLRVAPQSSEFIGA

Cc1cc2nc(NCCCO)n(CC(=O)c3cc(C(C)(C)C)c(O)c(C(C)(C)C)c3)c2cc1C
inactive: [1]; EGFR(E746-A750del) 100% | [1]; EGFR(G719C) 89% | [1]; EGFR(G719S) 100% | [1]; EGFR(L747-E749del, A750P) 87% | [1]; EGFR(L747-S752del, P753S) 100% | [1]; EGFR(L747-T751del,Sins) 97% | [1]; EGFR(L858R) 77% | [1]; EGFR(L861Q) 59% | [1]; EGFR(S752-I759del) 100% | [1]; EGFR 86% | TEC 98% | JAK1(Kin.Dom.2) 90% | [2] 100% | [3] 100% | [4] 100% | LIMK2 80% | [5] 100% | CSK 100% | [6] 91% | BMPR2 64% | [7] 100% | [8] 89% | [9] 100% | [10] 100% | [10]; FLT3(D835H) 100% | [10]; FLT3(D835Y) 99% | [10]; FLT3(ITD) 100% | [10]; FLT3(K663Q) 100% | [10]; FLT3(N841I) 94% | JAK1(Kin.Dom.1) 100% | CSNK1E 96% | DAPK2 100% | CSNK1A1L 99% | MLCK 91% | MLK3 99% | MEK2 87% | [11] 100% | [12] 80% | [13] 94% | NDR2 100% | [14] 100% | [15]; RPS6KA4(Kin.Dom.1) 100% | [15]; RPS6KA4(Kin.Dom.2) 100% | [16] 100% | [17] 100% | [18] 85% | LKB1 100%
